Test results: US20090048295A1, “SUBSTITUTED 5,6,7,8-TETRAHYDROQUINOLINE DERIVATIVES, COMPOSITIONS, AND METHODS OF USE THEREOF” (priority 2007, published 2009)
Where “and” joins values, the source holds several entries; their conditions need not be identical. Equal values may be shown once.

T1: C5a receptor (Homo sapiens, UniProt P21730)
T1 sequence (P21730 1-350): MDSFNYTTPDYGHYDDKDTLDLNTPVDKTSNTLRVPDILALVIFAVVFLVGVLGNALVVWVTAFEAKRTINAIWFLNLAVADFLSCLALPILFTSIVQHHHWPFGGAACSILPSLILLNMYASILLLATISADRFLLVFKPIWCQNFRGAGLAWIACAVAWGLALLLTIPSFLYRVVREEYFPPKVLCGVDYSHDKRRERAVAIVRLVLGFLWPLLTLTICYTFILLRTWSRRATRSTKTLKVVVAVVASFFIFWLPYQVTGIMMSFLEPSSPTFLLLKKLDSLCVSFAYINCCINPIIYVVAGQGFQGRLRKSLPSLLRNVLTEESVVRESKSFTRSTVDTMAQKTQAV


How the values were obtained:
C5a receptor [1] = molecular target: T1, C5a receptor; test: [125I]-C5a Radioligand Binding Assay (competition binding, differentiated U937 cells); conditions: for inhibition at 1 µM: read-out: [125I]-C5a Binding % Inhibition 1 μM, test compound 1 μM; for inhibition at 1 µM / inhibition at 10 µM / [125I]-C5a Binding % Inhibition 1 μM / [125I]-C5a Binding % Inhibition 10 μM: [125I]-C5a 0.05 nM, U937 cells, multiple values = duplicate experiments; for inhibition at 10 µM: read-out: [125I]-C5a Binding % Inhibition 10 μM, test compound 10 μM; for [125I]-C5a Binding % Inhibition 1 μM: test compound 1 μM; for [125I]-C5a Binding % Inhibition 10 μM: test compound 10 μM;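 on all read-outs here: cells preincubated with compound 30 min at room temperature, then 60 min at 4 °C with radioligand, bound counts read by scintillation, nonspecific binding defined with 100 nM C5a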
Protocol: Competition binding assays for C5a receptors were performed by incubation of differentiated U937 cells (200,000 cells/well), test compound (1% DMSO) and [^125I]-C5a (Bolton & Hunter labeled, Perkin Elmer, specific activity=2200 Ci/mmol, 0.05 nM final) in binding buffer consisting of 50 mM HEPES, 5 mM MgCl2, 1 mM CaCl2, 0.5% protease-free BSA, 0.02% NaN3, pH 7.4. 100× solutions of test compounds were prepared in DMSO and further diluted in binding buffer. Non-specific binding was defined in wells containing 100 nM recombinant C5a. Cells and compound were pre-incubated for 30 min at RT. After addition of the radioligand, further incubation for 60 min occurred at 4° C. Cells were harvested on GF/B filters—presoaked in 0.5% polyethylenimine, followed by washing with binding buffer containing 500 mM NaCl, pH 7.4. Filter bound radioactivity was determined by liquid scintillation counting. IC50 and Ki values were calculated using non-linear regression in Graphpad Prism. Ki is calculated using the equation of Cheng and Prusoff (Biochem. Pharmacol. 1973, 22: 3099-3108)

C5a receptor [2] = molecular target: T1, C5a receptor; test: Calcium Mobilization Assay (C5a-induced Ca2+ mobilization, FLIPR, differentiated U937 cells); format: cell-based; design: endogenous in cells; host or cells: U937 cells differentiated with dibutyryl cAMP; conditions: […] recombinant human C5a, 20 min pre-incubation, multiple values = duplicate experiments, read-out: C5a Induced Ca Mobil. Average IC50
Protocol: U937 cells (human monocytic cell line) were cultured in RPMI-1640 medium supplemented with 10% fetal bovine serum, 10 mM HEPES, 0.11 g/L pyruvate, 0.29 g/L L-glutamine, 100 IU/mL penicillin G and […] streptomycin. Dibutyryl cAMP (1 mM) was added to induce differentiation 2 or 3 days prior to loading the cells with 4.4 μM Fluo-3AM (Molecular Probes) for 30 min at 37° C. in RPMI medium containing 20 mM HEPES, 0.1% bovine serum albumin (BSA) and 5 mM probenecid. After washing, cells were dissolved at 2×10^6 cells/ml in HBSS buffer (Invitrogen 14190-094) supplemented with 10 mM HEPES, 2.5 mM probenecid and 0.1% BSA (pH=7.4), and sedimented by 1 min centrifugation (1500 rpm) in black 96-well plates (Costar) (200,000 cells/well). A 100× concentration range of test compounds was prepared in DMSO and further diluted in HBSS buffer. U937 cells were pre-incubated with compound for 20 minutes at room temperature (1% DMSO), before recombinant human C5a (Sigma) was added to the cells (1.5 nM). Changes in intracellular free Ca^2+ concentration were measured using the Fluorescent Imaging Plate Reader (FLIPR, Molecular Devices). Fluorescence was recorded every second from 10 seconds before the addition of C5a until 2 min after the addition. The maximal fluorescence obtained during this time frame was used for further calculations.

Row | Molecule | inhibition at 1 µM (C5a receptor [1]) | inhibition at 10 µM (C5a receptor [1]) | IC50 (C5a receptor [2]) | also measured
1 | CCOc1cc(-c2c(CC)cccc2CC)nc2c1C(N(CC)c1cccc3ccccc13)CCC2 (racemic) [Compound 8, (±)-[2-(2,6-Diethyl-Phenyl)-4-ethoxy-5,6,7,8-tetrahydro-quinolin-5-yl]-ethyl-naphthlen-1-yl-amine] | 94% | 96% | 67 nM | –
2 | CCc1cccc(CC)c1-c1cc(OC)c2c(n1)CCCC2N(CC)c1cccc2ccccc12 (racemic) [Compound 12, (±)-[2-(2,6-Diethyl-phenyl)-4-methoxy-5,6,7,8-tetrahydro-quinolin-5-yl]-ethyl-naphthlen-1-yl-amine] | 94% | 97% | – | [125I]-C5a Binding % Inhibition 1 μM (C5a receptor [1]): 88% and 98% and 101% and 100% and 81%; [125I]-C5a Binding % Inhibition 10 μM (C5a receptor [1]): 92% and 102, 102, % and 90%
3 | CCc1cccc(CC)c1-c1cc(CC)c2c(n1)CCCC2Nc1cc(OC)ccc1C (racemic) [Compound 25, (±)-[2-(2,6-Diethyl-phenyl)-4-ethyl-5,6,7,8-tetrahydro-quinolin-5-yl]-(5-methoxy-2-methyl-phenyl)-amine] | – | – | 244 nM | –
4 | CCCC1(Nc2cc(OC)ccc2C)CCCc2nc(-c3c(CC)cccc3CC)cc(OC)c21 (racemic) [Compound 70, (±)-[2-(2,6-Diethyl-phenyl)-4-methoxy-5-propyl-5,6,7,8-tetrahydro-quinolin-5-yl]-(5-methoxy-2-methyl-phenyl)-amine] | – | – | 3470 nM | –
5 | CCc1cccc(CC)c1-c1cc(OC(C)C)c2c(n1)CCCC2Nc1ccccc1CCO (stereo not shown) [Compound 1] | – | – | 7.3 nM | –
6 | CCc1cccc(CC)c1-c1cc(OC)c2c(n1)CCCC2Nc1cc(C(F)(F)F)ccc1CO (stereo not shown) [Compound 2] | – | – | 22 nM | –
7 | CCc1cccc(CC)c1-c1cc(OC)c2c(n1)CCCC2Nc1cc(Cl)ccc1CO (stereo not shown) [Compound 3] | – | – | 26 nM | –
8 | CCc1cccc(CC)c1-c1cc(OC)c2c(n1)CCC[C@H]2N(CC)c1cccc2ccccc12 [Compound 4] | 94% | 95% | – | [125I]-C5a Binding % Inhibition 1 μM (C5a receptor [1]): 99%; [125I]-C5a Binding % Inhibition 10 μM (C5a receptor [1]): 101%
9 | CCc1cccc(CC)c1-c1cc(OC)c2c(n1)CCCC2Nc1ccccc1CCO (stereo not shown) [Compound 5] | 92% | 97% | 30 nM | –
10 | CCc1cccc(CC)c1-c1cc(OC2CCCC2)c2c(n1)CCCC2N(CC)c1cccc2ccccc12 (stereo not shown) [Compound 6] | – | – | 37 nM | –
11 | CCc1cccc(CC)c1-c1cc(OC)c2c(n1)CCCC2Nc1ccc(F)cc1CO (stereo not shown) [Compound 7] | – | – | 53 nM | –
12 | CCc1cccc(CC)c1-c1cc(SC)c2c(n1)CCCC2N(CC)c1cccc2ccccc12 (stereo not shown) [Compound 10] | 92% | 94% | 82 nM | –
13 | CCN(c1cccc2ccccc12)C1CCCc2nc(-c3c(Cl)cccc3OC)cc(OC)c21 (stereo not shown) [Compound 13] | – | – | 109 nM | –
14 | CCc1cccc(CC)c1-c1cc(OC)c2c(n1)CCCC2Nc1ccccc1CO (stereo not shown) [Compound 15] | 79% | 90% | 177 nM | –
15 | CCN(c1cccc2ccccc12)C1CCCc2nc(-c3c(C)cccc3C)cc(OC)c21 (stereo not shown) [Compound 16] | 88% | 90% | 133 nM | –
16 | CCc1cccc(CC)c1-c1cc(OC2CCCC2)c2c(n1)CCCC2Nc1cc(OC)ccc1C (stereo not shown) [Compound 17] | – | – | 134 nM | –
17 | CCc1cccc(CC)c1-c1cc(OC(C)C)c2c(n1)CCCC2Nc1cc(OC)ccc1C (stereo not shown) [Compound 18] | – | – | 137 nM | –
18 | CCN(c1cccc2ccccc12)C1CCCc2nc(-c3c(C)cc(OC)cc3C)cc(OC)c21 (stereo not shown) [Compound 21] | 91% | 93% | 169 nM | –
19 | CCc1cccc(CC)c1-c1cc(CC)c2c(n1)CCCC2N(CC)c1cccc2ccccc12 (stereo not shown) [Compound 23] | – | – | 191 nM | –
20 | CCc1cccc(CC)c1-c1cc(OC)c2c(n1)CCCC2Nc1ccccc1C(=O)O (stereo not shown) [Compound 33] | – | – | 414 nM | –
21 | CCc1cccc(CC)c1-c1cc(OC)c2c(n1)CCCC2Nc1ccccc1C (stereo not shown) [Compound 46] | 81% | 87% | – | –
22 | CCc1cccc(CC)c1-c1cc(OCCN(C)C)c2c(n1)CCCC2Nc1cc(OC)ccc1C (stereo not shown) [Compound 62] | – | – | 2320 nM | –
23 | CCc1cccc(CC)c1-c1cc(OC)c2c(n1)CCCC2Oc1ccccc1CCO (stereo not shown) [Compound 64] | – | – | 2390 nM | –

Row | Molecule | inhibition at 1 µM (C5a receptor [1]) | inhibition at 10 µM (C5a receptor [1]) | IC50 (C5a receptor [2]) | also measured
24 | CCc1cccc(CC)c1-c1cc(OC)c2c(n1)CCCC2Nc1cnccc1CO (stereo not shown) [Compound 71] | – | – | 3470 nM | –
25 | CCc1cccc(CC)c1-c1cc(OC)c2c(n1)CCCC2Nc1ccccc1CN (stereo not shown) [Compound 75] | – | – | 4960 nM | –
26 | CCc1cccc(CC)c1-c1cc(OC)c2c(n1)CCCC2N1CCc2ccc(OC)cc2C1 (stereo not shown) [Compound 100] | 70% | 82% | – | –
27 | CCc1cccc(CC)c1-c1cc(OC)c2c(n1)CCCC2N1CCc2ccc(C(F)(F)F)cc2C1 (stereo not shown) [Compound 101] | 75% | 79% | – | –
28 | CCc1cccc(CC)c1-c1cc(OC)c2c(n1)CCCC2Nc1cccc2ccccc12 (stereo not shown) [Compound 103] | – | – | – | [125I]-C5a Binding % Inhibition 1 μM (C5a receptor [1]): 48%; [125I]-C5a Binding % Inhibition 10 μM (C5a receptor [1]): 61%
29 | CCN(c1cccc2ccccc12)C1CCCc2nc(-c3ccccc3-c3ccccc3)cc(OC)c21 (stereo not shown) [Compound 107] | 76% | 84% | – | –
30 | COc1cc(-c2c(C)cccc2C)nc2c1C(N(C)c1c(C)cccc1C)CCC2 (stereo not shown) [Compound 114] | 63% | 73% | – | –
31 | CCc1cccc(CC)c1-c1cc(OC)c2c(n1)CCCC2N(C)c1cccc2c(OC)cccc12 (stereo not shown) [Compound 118] | 71% | 77% | – | –
32 | CCc1cccc(CC)c1-c1cc(OC)c2c(n1)CCCC2N(C)c1cc(-c2ccccc2)ccc1C (stereo not shown) [Compound 122] | 81% | 84% | – | –
33 | CCc1cccc(CC)c1-c1cc(OC)c2c(n1)CCCC2N1CCc2cc(OC)c(OC)cc2C1 (stereo not shown) [Compound 127] | -9% | 42% | – | –
34 | CCc1cccc(CC)c1-c1cc(OC)c2c(n1)CCCC2Nc1cccc2ccccc12 (stereo not shown) [Compound 132] | – | – | – | [125I]-C5a Binding % Inhibition 1 μM (C5a receptor [1]): 12%; [125I]-C5a Binding % Inhibition 10 μM (C5a receptor [1]): 34%
35 | CCN(c1cccc2ccccc12)C1CCCc2nc(-c3ccsc3)cc(OC)c21 (stereo not shown) [Compound 134] | -8% | 40% | – | –
36 | CCN(c1cccc2ccccc12)C1CCCc2nc(-c3cccnc3)cc(OC)c21 (stereo not shown) [Compound 136] | 2% | 35% | – | –
37 | CCc1cccc(CC)c1-c1cc(OC)c2c(n1)CCCC2Oc1ccccc1CO (stereo not shown) [Compound 139] | – | – | > 10000 nM | –
38 | CCc1cccc(CC)c1-c1cc(OC)c2c(n1)CCCC2(C)Nc1cc(OC)ccc1C (stereo not shown) [Compound 140] | – | – | > 10000 nM | –
39 | CCc1cccc(CC)c1-c1cc(OC)c2c(n1)CCCC2Nc1ccc(CO)cc1C (stereo not shown) [Compound 141] | – | – | > 10000 nM | –
40 | CCc1cccc(CC)c1-c1cc(OC)c2c(n1)CCCC2Nc1cccc(CO)c1 (stereo not shown) [Compound 142] | – | – | > 10000 nM | –
41 | CCc1cccc(CC)c1-c1cc(OC)c2c(n1)CCCC2Oc1cc(OC)ccc1C=O (stereo not shown) [Compound 143] | – | – | > 10000 nM | –
42 | CCc1cccc(CC)c1-c1cc(OC)c2c(n1)CCCC2NCc1ccccc1N (stereo not shown) [Compound 145] | – | – | > 10000 nM | –
43 | CCc1cccc(CC)c1-c1cc(O)c2c(n1)CCCC2Nc1cc(O)ccc1C (stereo not shown) [Compound 146] | – | – | > 10000 nM | –
44 | CCOC(=O)c1ccccc1OC1CCCc2nc(-c3c(CC)cccc3CC)cc(OC)c21 (stereo not shown) [Compound 150] | – | – | > 10000 nM | –
45 | CCN(c1cccc2ccccc12)C1CCCc2nc(-c3c(C)noc3C)cc(OC)c21 (stereo not shown) [Compound 151] | – | – | > 10000 nM | –
46 | C5a: anaphylatoxin C5a, 74-amino acid N-terminal fragment of complement factor C5; recombinant human C5a (Sigma), radioligand [125I]-C5a (protein, UniProt P01031 678-751, looked up, C5a anaphylatoxin also 125I-labelled radioligand) C5a anaphylatoxin: TLQKKIEEIAAKYKHSVVKKCCYDGACVNNDETCEQRAARISLGPRCIKAFTECCVVASQLRANISHKDMQLGR | – | – | – | Kd (C5a receptor [1]; read-out: C5a Kd, Kd of C5a used for the Ki calculation): 0.324 nM
